Ends that are not written are not given here. * marks the point of attachment. Cam = NC(=O)C*
Columns and labels:
[1] = test system: NOD mouse; assay: Rate of type 1 diabetes and final blood glucose in treated female NOD/ShiLtJ mice; format: in vivo; conditions: for rate of diabetes: EGCG IP in saline from age 3-5 days
Protocol: Mouse care: NOD/ShiLtJ mice were from The Jackson Laboratory (Bar Harbor, ME, USA). Mice were housed under standard conditions (20-24° C., humidity 30-70%, lighting regimen 12 h light/12 h dark) in the University of Wisconsin Biomedical Research Model Service that is a specific pathogen free level 1 facility. […] Mice had access to acidified water or water containing a chemical and/or green tea ad libitum. All procedures were approved by the Research Animal Resources and Compliance veterinary care authority of the University of Wisconsin, Madison.
Mouse treatments: Mice were given chemicals by intraperitoneal injection and/or by gavage and/or in drinking water. Water-soluble chemicals were administered in a solution of sodium chloride adjusted to have a final osmolality of 0.5-0.9%. Lipid soluble chemicals were dissolved in olive oil, peanut oil, corn oil, Mazola® oil or canola oil.
Starting at age 2 to 5 days mice were given injections on every third or fourth day for 2 to 4 weeks (usually 2 to 2.5 weeks) for the first 4 or 6 injections, and thereafter twice per week on Mondays and Thursdays until up to age 100 days. In some instances, pregnant and nursing mice were given chemicals in drinking water starting at about the middle or late pregnancy continuing during nursing and also continuing for various lengths of time to the offspring with or without additional intraperitoneal injections of chemicals. In other instances, chemicals were delivered by intraperitoneal injection into pregnant mice and continued after delivery into the mouse pups. Chemicals, for example EGCG, were also delivered in drinking water starting before birth to the pregnant mouse mother and/or continuing and/or starting ad libitum to the mice after birth usually until at least 100 days of age or throughout life.
Chemicals given in distilled drinking water were green tea (as a source of EGCG and other catechins) (Lipton® 100% Natural Green Tea). […] The tea water was given alone and also in combination with acetaminophen 2 g/l in the same water.
In most cases nondiabetic mice were euthanized at 40-41 weeks of age. Statistical significances of the frequencies of diabetes in the mice receiving test treatments were compared to the rates of diabetes in mice receiving control treatments and were calculated with the Chi square test and with the Chi square test with Yate's correction.
In most of the studies, control solutions and the other treatments were administered to the mice until they were 100 days old. Mice without diabetes were euthanized at 40-41 weeks of age. Diabetic mice were euthanized when their blood glucose levels reached a level that met the criteria for diabetes.
Administration of water-soluble chemicals serving as controls to NOD mice: Control solutions were the vehicles in which chemicals were dissolved. Control solutions were usually administered to mouse litters from the same shipments as the litters receiving test chemicals and/or litters from the same parents as the litters receiving test chemicals and were administered during the same month and year as treatments to the litters receiving test treatments. Statistical probabilities between the rates of diabetes in the litters receiving test treatments were compared to litters simultaneously receiving control treatments.

[2] = test system: NOD mouse; conditions: Fu et al.: 1 mM EGCG in drinking water, given after age 5 weeks; 12 mice; 32 weeks of age; cited from earlier work
[3] = 2000-3500 μmol/kg IP in olive oil, age 40 weeks
[4] = 2000-3500 μmol/kg IP in peanut oil
[5] = started post wean, 3100-4000 μmol/kg IP in olive oil
[6] = 200 μmol/kg IP in saline, age 40 weeks
[7] = pure oleocanthal (oil) 50 μmol/kg, no carrier, IP til wean, then gavage
[8] = 20 ug, then 40 μg after 3 weeks, IP in 5% DMSO/95% saline
[9] = 40 μg twice/week for two weeks then once per week until 14 weeks old, IP in 5% DMSO/95% saline
[10] = 50 μmol/kg IP in saline from age 3-5 days until 59-63 or 93-95 days, age 41-44 weeks
[11] = 1 mM in drinking water, oral, from 1-4 days after birth
[12] = 60 day treatment (stopped at age 59-60 days), 50 μmol/kg IP in saline, age 40 weeks
[13] = IP 50 μmol/kg in saline til wean (21 days), then gavage 100 μmol/kg until 97-98 days
[14] = started post wean (21 days) until 99 days, 50 μmol/kg IP in ¾ saline
[15] = hydroxytyrosol alone, 325 μmol/kg first 5 weeks, 650 thereafter, IP in ¾ saline
[16] = menaquinone-4 200 μmol/kg IP in olive oil, age 40 weeks
[17] = menaquinone-4 200 μmol/kg IP in peanut oil
[18] = 20 ug once per week for first 3 weeks, then 40 μg once per week until 100-110 days, IP in 5% DMSO/95% saline, age 40 weeks
[19] = 100 μmol/kg IP in saline, age 34 weeks
[20] = 1500 μmol/kg in olive oil, IP til wean (21 days), then gavage until 98 days, age 40 weeks
[21] = 2000 μmol/kg IP in olive oil, age 40 weeks
[22] = quercetin 200 μmol/kg IP in olive oil, age 40 weeks
[23] = quercetin 200 μmol/kg IP in peanut oil
[24] = 200 μmol/kg in ¾ saline, IP til wean (21 days), then gavage until 55-62 days, age 35 weeks

CC1=C(C/C=C(\C)CCC[C@H](C)CCC[C@H](C)CCCC(C)C)C(=O)c2ccccc2C1=O [Phylloquinone, reference compound]
Diabetes (%) ([1]; 110 μmol/kg IP in olive oil): 38% | Final Blood Glucose (mean ± SE) diabetic ([1]; 110 μmol/kg IP in olive oil): 648 ± 37 mg glucose/dl | Final Blood Glucose (mean ± SE) non-diabetic ([1]; 110 μmol/kg IP in olive oil): 174 ± 5 mg glucose/dl | Diabetes (%) [1, 3]: 21% | Final Blood Glucose (mean ± SE) diabetic [1, 3]: 647 ± 27 mg glucose/dl | Final Blood Glucose (mean ± SE) non-diabetic [1, 3]: 163 ± 5 mg glucose/dl | Diabetes (%) [1, 4]: 40% | Final Blood Glucose (mean ± SE) diabetic [1, 4]: 646 ± 40 mg glucose/dl | Final Blood Glucose (mean ± SE) non-diabetic [1, 4]: 167 ± 10 mg glucose/dl | Diabetes (%) [1, 5]: 36% | Final Blood Glucose (mean ± SE) diabetic [1, 5]: 677 ± 20 mg glucose/dl | Final Blood Glucose (mean ± SE) non-diabetic [1, 5]: 156 ± 6 mg glucose/dl

CC(S)C(=O)NCC(=O)O (stereo not drawn) [Tiopronin, reference compound]
Diabetes (%) [1, 6]: 74% | Final Blood Glucose (mean ± SE) diabetic [1, 6]: 685 ± 19 mg glucose/dl | Final Blood Glucose (mean ± SE) non-diabetic [1, 6]: 175 ± 12 mg glucose/dl

C/C=C(/C=O)[C@@H](CC=O)CC(=O)OCCc1ccc(O)cc1 [Oleocanthal (oil)]
Diabetes (%) [1, 7]: 35% | Final Blood Glucose (mean ± SE) diabetic [1, 7]: 560 ± 61 mg glucose/dl | Final Blood Glucose (mean ± SE) non-diabetic [1, 7]: 178 ± 7 mg glucose/dl

VEALYLVCGERG (VEALYLVC(Cam)GERG) [Ins B12-23 19CAM]
Diabetes (%) [1, 8]: 47% | Final Blood Glucose (mean ± SE) diabetic [1, 8]: 679 ± 32 mg glucose/dl | Final Blood Glucose (mean ± SE) non-diabetic [1, 8]: 160 ± 6 mg glucose/dl

VEALYLVCEGEEG (VEALYLVC(Cam)EGEEG) [Ins B12-23 19CAM22R-E, insulin B12-23 mimotope peptide treated with iodoacetamide to carboxyamidomethylate the cysteine residue]
Diabetes (%) [1, 9]: 54% | Final Blood Glucose (mean ± SE) diabetic [1, 9]: 569 ± 70 mg glucose/dl | Final Blood Glucose (mean ± SE) non-diabetic [1, 9]: 166 ± 7 mg glucose/dl

O=C(O[C@@H]1Cc2c(O)cc(O)cc2O[C@@H]1c1cc(O)c(O)c(O)c1)c1cc(O)c(O)c(O)c1 [EGCG, (2R,3R)-5,7-Dihydroxy-2-(3,4,5-trihydroxyphenyl)-3,4-dihydro-2H-1-benzopyran-3-yl 3,4,5-trihydroxybenzoate]
Diabetes (%) [1, 10]: 35% | Final Blood Glucose (mean ± SE) diabetic [1, 10]: 685 ± 34 mg glucose/dl | Final Blood Glucose (mean ± SE) non-diabetic [1, 10]: 159 ± 5 mg glucose/dl | Diabetes (%) [1, 11]: 40% | Final Blood Glucose (mean ± SE) diabetic [1, 11]: 708 ± 24 mg glucose/dl | Final Blood Glucose (mean ± SE) non-diabetic [1, 11]: 172 ± 4 mg glucose/dl | Diabetes (%) [1, 12]: 33% | Final Blood Glucose (mean ± SE) diabetic [1, 12]: 663 ± 57 mg glucose/dl | Final Blood Glucose (mean ± SE) non-diabetic [1, 12]: 145 ± 4 mg glucose/dl | rate of diabetes ([1]; treatment ending after 59-63 days, age 41-44 weeks): 38% | rate of diabetes ([1]; treatment ending after 93-95 days, age 41-44 weeks): 31% | Diabetes (%) [1, 13]: 50% | Final Blood Glucose (mean ± SE) diabetic [1, 13]: 624 ± 33 mg glucose/dl | Final Blood Glucose (mean ± SE) non-diabetic [1, 13]: 200 ± 12 mg glucose/dl | Diabetes (%) [1, 14]: 29% | Final Blood Glucose (mean ± SE) diabetic [1, 14]: 605 ± 59 mg glucose/dl | Final Blood Glucose (mean ± SE) non-diabetic [1, 14]: 166 ± 4 mg glucose/dl | Diabetes (%) ([1]; started post wean, 250 μmol/kg by gavage in water, mice 24-27 weeks old, study ongoing): 25% | mice that had diabetes [2]: 25%

OCCc1ccc(O)c(O)c1 [Hydroxytyrosol, 4-(2-hydroxyethyl)benzene-1,2-diol]
Diabetes (%) [1, 15]: 59% | Final Blood Glucose (mean ± SE) diabetic [1, 15]: 672 ± 24 mg glucose/dl | Final Blood Glucose (mean ± SE) non-diabetic [1, 15]: 173 ± 12 mg glucose/dl

CC(C)=CCC/C(C)=C/CC/C(C)=C/CC/C(C)=C\CC1=C(C)C(=O)c2ccccc2C1=O [Menaquinone-4, 3-methyl-2-[(2Z,6E,10E)-3,7,11,15-tetramethylhexadeca-2,6,10,14-tetraenyl]naphthalene-1,4-dione, reference compound]
Diabetes (%) ([1]; 200 μmol/kg in olive oil, IP til wean (21 days), then gavage until 98 days, mice 24-30 weeks old, study ongoing): 25% | Diabetes (%) ([1]; 30 day treatment, 200 μmol/kg IP in olive oil, mice 20-40 weeks old, study ongoing): 32% | Diabetes (%) ([1]; 60 day treatment, 200 μmol/kg IP in olive oil, mice 34-36 weeks old, study ongoing): 4% | Diabetes (%) [1, 16]: 0% | Final Blood Glucose (mean ± SE) non-diabetic [1, 16]: 172 ± 15 mg glucose/dl | Diabetes (%) [1, 17]: 50% | Final Blood Glucose (mean ± SE) diabetic [1, 17]: 706 ± 25 mg glucose/dl | Final Blood Glucose (mean ± SE) non-diabetic [1, 17]: 164 ± 9 mg glucose/dl

SHLVEALYLVCGEEG (SHLVEALYLVC(Cam)GEEG) [Ins B9-23 19CAM22R-E, insulin B chain 9-23 mimotope peptide treated with iodoacetamide to carboxyamidomethylate the cysteine residue at position 19]
Diabetes (%) [1, 18]: 17% | Final Blood Glucose (mean ± SE) diabetic [1, 18]: 681 ± 82 mg glucose/dl | Final Blood Glucose (mean ± SE) non-diabetic [1, 18]: 159 ± 6 mg glucose/dl

O=C(O)/C=C/c1ccc(O)c(O)c1 [Caffeic Acid, reference compound]
Diabetes (%) [1, 19]: 65% | Final Blood Glucose (mean ± SE) diabetic [1, 19]: 611 ± 32 mg glucose/dl | Final Blood Glucose (mean ± SE) non-diabetic [1, 19]: 178 ± 15 mg glucose/dl

CC1=C(C=O)C(C)(C)CC=C1 [Safranal, 2,6,6-Trimethylcyclohexa-1,3-diene-1-carbaldehyde]
Diabetes (%) [1, 20]: 36% | Final Blood Glucose (mean ± SE) diabetic [1, 20]: 595 ± 36 mg glucose/dl | Final Blood Glucose (mean ± SE) non-diabetic [1, 20]: 172 ± 8 mg glucose/dl | Diabetes (%) [1, 21]: 32% | Final Blood Glucose (mean ± SE) diabetic [1, 21]: 606 ± 60 mg glucose/dl | Final Blood Glucose (mean ± SE) non-diabetic [1, 21]: 159 ± 5 mg glucose/dl

O=c1c(O)c(-c2ccc(O)c(O)c2)oc2cc(O)cc(O)c12 [Quercetin]
Diabetes (%) [1, 22]: 26% | Final Blood Glucose (mean ± SE) diabetic [1, 22]: 610 ± 56 mg glucose/dl | Final Blood Glucose (mean ± SE) non-diabetic [1, 22]: 178 ± 7 mg glucose/dl | Diabetes (%) [1, 23]: 47% | Final Blood Glucose (mean ± SE) diabetic [1, 23]: 651 ± 25 mg glucose/dl | Final Blood Glucose (mean ± SE) non-diabetic [1, 23]: 171 ± 11 mg glucose/dl

C[S+]([O-])CCCCN=C=S (stereo not drawn) [Sulforaphane, 1-Isothiocyanato-4-(methanesulfinyl)butane]
Diabetes (%) [1, 24]: 42% | Final Blood Glucose (mean ± SE) diabetic [1, 24]: 619 ± 37 mg glucose/dl | Final Blood Glucose (mean ± SE) non-diabetic [1, 24]: 154 ± 7 mg glucose/dl
